# pIC50: −log10 of the molar value.
# Assay: Inhibition of human CCR6 expressed in CHO cells assessed as decrease in human CCL20-dependent cell migration incubated for 4 hrs by Diff-Quik staining based assay
row,SMILES,pIC50
1,Cc1ccc(S(=O)(=O)N2CCC(Nc3ccc(C#N)cn3)CC2)cc1,5.85
2,N#Cc1ccc(NC2CCN(S(=O)(=O)c3ccc(-c4ccccc4)cc3)CC2)nc1,6.62
